Entries after “also recorded” stand apart in the source; their conditions may differ.
Legend:
[1] = system: Protein 5; assay: Protein stabilization, purity by SEC-UPLC; format: physicochemical; settings: Protein 5 formulation, 0.2% PLX188 or 0.04% PS20, PS80 or VEDS, one month at 30° C.
Procedure: A liquid formulation containing Protein 5 was prepared as herein described. […] (FIG. 8). A pull point was taken after this time and used for the following analysis.

[2] = Surfactant stability under oxidative stress (H2O2); format: physicochemical; settings: 0.25 M and 2.5 M H2O2, 6 days at 40° C., vs non-treated control
Procedure: (§1) Polysorbate 20/80 suffers from chemical and enzymatic degradation mechanisms as described earlier. In order to test the amphiphilic surfactants of the disclosure for stability against oxidative and hydrolytic stress, the following forced degradation assay was performed using hydrogen peroxide and various buffers to mimic those stress conditions. The aim was to mimic chemical degradation pathways that surfactants would encounter during shelf life.
(§2) H2O2(0.25 M and 2.5 M) was added to formulations containing surfactants and subsequently incubated for 6 days at 40° C. in order to mimic oxidative stress. In addition, surfactants were added to different buffer types (e.g., histidine, citrate, phosphate and succinate buffer) and exposed to accelerated degradation stress such as temperature stress (50° C. for 1 month) at different pH (5.5 and 6.5) in order to mimic chemical degradation pathways (e.g., oxidation, hydrolysis). Control samples were frozen to avoid degradation (FZ). Chromatography methods were used to determine the surfactant content of formulations after accelerated conditions by comparing it to the amount of surfactant spiked into the buffer at the beginning of the experiment.

[3] = system: host cell proteins (HCPs) of Protein 4; assay: Enzymatic degradation of surfactant in protein 4 formulation; format: physicochemical; settings: 0.02% PS80 or 0.04% other surfactants, one month at 5° C. or 40° C., HPLC
Description: Therefore, a formulation containing protein 4 also contains the enzymes responsible for polysorbate degradations and it is a suitable proxy for testing the propensity of enzymatic degradation during shelf life in real-world conditions.

[4] = Quiescence stability study, oxidative and hydrolytic degradation of surfactant in Protein 2 formulation; settings: six months at 25° C.; for surfactant content left: HPLC main peak
Procedure: A pull point was taken every month and a half (TO, T1.5m, T3m, T4.5m and T6m) and frozen for storage.
The surfactant content was measured for all pull points of a specific surfactant in a single series by HPLC and the analysis was performed by a standard baseline correction followed by integration of the main peak, representing the integer (not degraded) surfactant.

[5] = Surfactant stability under pH and temperature stress in different buffers; format: physicochemical; settings: pH 5.5 and 6.5, 50° C. for 1 month, vs frozen control (FZ)
Procedure: as §1, §2

[6] = system: protein 1; assay: Equilibrium surface tension, pendant-drop tensiometer (protein displacement at air/water interface); format: physicochemical; settings: surfactant in histidine buffer, absence or presence of protein 1, compared with protein 1 without surfactant; 60 min
Procedure: The aim of this experiment was to investigate the type of stabilization mechanism which the surfactants employ in protein-containing formulations. A Pendant-Drop Tensiometer was utilized to determine protein (API) displacement by surfactants at the air/water interface. Surfactant interface saturation mitigates the risk of interfacial stress for proteins and associated negative effects potentially impacting protein quality attributes.
The protein corresponding buffer was prepared and sterile filtered using a 0.22 μm filter unit. The surfactant in question was added into the buffer using a 5% stock solution as described earlier.
The buffer surfactant mix was aliquoted in 2 Nalgene bottles. To one of the two bottles was added the respective API in question to reach a final concentration of 1 mg/mL for protein 1 and 10 mg/mL for proteins 2 and 3.
Equilibrium surface tension was measured using the PAT-1M tensiometer (Sinterface). The system was rinsed 12 times with the sample to be measured. A hanging drop of constant volume (20 μL) was measured every second for 60 min. Drug substance samples with and without surfactants were measured at the same day to avoid operator, sample and day to day variations.

[7] = system: dendritic cells; assay: Dendritic cell activation; format: cell-based, human; settings: 48 h surfactant incubation, compared to LPS activated DC and no-treatment control
Procedure: Dendritic cell activation: Human whole blood was used to extract monocytes using MACS (magnetic activated cell sorting) according to manufacturer's instructions (Miltenyi Biotec Order no. 130-114-980). Cells were incubated for 6 days in respective differentiation media (Miltenyi DC differentiation medium order no. 130-094-812) resulting in dendritic cells. Cells were incubated in medium with surfactants in question for 48 h and subsequently stained for cell activation using fluorescently labeled antibodies (Mouse Anti-Human CD14 PerCP-Cy5.5 order no. 562692 from BD to check monocyte negative; Mouse Anti-Human CD11c BV605 from BD to check dendritic cell differentiation and Mouse Anti-Human CD80 FITC order no. 557226 from BD to check cell activation).

[8] = system: Basophile cells; assay: Basophile activation assay (B-cell activation); format: cell-based, human; settings: compared to polysorbate and B-cell activating positive control
Procedure: Basophile activation assay: Human whole blood was used to purify B-cells using an in vitro B-cell activation kit (Cellonic, Basotest, Cat #10-0500). Basophile cells were incubated in 100 μL 1×wash buffer containing the final surfactant concentration as the correct dilutions were prepared beforehand. Cell labeling, lysis and fixation was performed according to manufacturer instructions and subsequently analyzed using a BD FORTESSA flow cytometer. Leucocytes are gated via forward and sideward scatter. The Basophile subpopulation was gated on CD123 and IgE staining. Finally, activated Basophile cells were identified via CD203c and CD63 gating. All fluorescently labeled antibodies were provided in the kit stated above.

[9] = system: protein 1 (disordered protein); assay: Orbital shaking forced degradation, particle count by micro-flow-imaging, Protein 1; format: physicochemical; settings: orbital shaking 250 rpm, ambient temperature, 0 h, 7 h and 24 h
Procedure: The API corresponding buffer was prepared with 20 mM Histidine, 220 mM Succrose pH 5.8 in water.
The aim of this experiment was to investigate the effect of amphiphilic surfactants to protect proteins from interfacial stress, such as that which is present during manufacturing, transport and application. As a proxy for this stress the forced degradation assay (orbital shaking), applying mechanical stress, was used in order to determine whether chosen surfactants stabilize three different protein API's (disordered protein, Fab, mAb) against mechanical stress (mitigating particle creation (protein aggregates)).
1.2 mL of sample was aliquoted in each 6R vial (2x). Vials of same sample were pooled after the study in order to generate enough volume for all analytical testing.
Mechanical stress was generated through orbital shaking at 250 rpm at ambient temperature for 0 h, 7 h, 24 h and 48 h using an orbital shaker. Samples were subsequently analyzed via micro-flow-imaging (MFI). Particle count >2 μm/mL was visualized by MF.

[10] = system: Platelets; assay: Inhibition of platelet aggregation, Whole Blood Aggregometry (WBA); format: cell-based, human; settings: 0.04% or 0.01% surfactant, 10 minutes at 37° C.; agonists AA, TRAP6, collagen, ADP
Procedure: Human whole blood of 6 healthy volunteers was incubated with 0.04% or 0.01% surfactants for 10 minutes at 37° C. Saline solution was used as negative control. Platelets were activated with four independent agonists: arachidonic acid (AA), thrombin receptor activator peptide (TRAP6), collagen and ADP. Aggregation was measured through Whole Blood Aggregometry (WBA).
Whole Blood Aggregometry (WBA) consists of immerging electrodes into whole blood which measure the impedance between them. The addition of a platelet agonist activates the aggregation, resulting in an increase of impedance over time. This increase can be compared between a negative control and a testing sample to derive the degree of platelet inhibition.

## Polysorbate 20 [PS20]
[1]
  protein purity, relative comparison between surfactants: lower purity
  sum of impurities, relative comparison between surfactants: higher impurities

## Polysorbate 80 [PS80]
[2]
  surfactant content after oxidative stress (H2O2): stable; also recorded: minor loss
[3]
  surfactant content (enzymatic degradation by HCPs): Degradation is observed both at 5 °C and 40 °C
[4]
  surfactant content left: ~5%
[5]; citrate buffer
  surfactant content after pH and temperature stress: stable
[5]; histidine buffer
  surfactant content after pH and temperature stress: decreased content
[5]; phosphate buffer
  surfactant content after pH and temperature stress: decreased content
[5]; succinate buffer
  surfactant content after pH and temperature stress: decreased content

## Vitamin E dimethyl glutarate [VEDG2.2]
[3]
  surfactant content (enzymatic degradation by HCPs): not affected by enzymatic degradation
[6]
  equilibrium surface tension / surface activity: even higher surface activity resulting in significant drop of surface tension
[7]; listed as VEDG 2.2
  mean fluorescence intensity (MFI) fold change, dendritic cell (DC) activation: perform better than TPGS1000; also recorded: no DC activation
[8]
  number of activated B cells (%) upon surfactant treatment: lower level of B-cell activation than TPGS1000
[9]
  particle count >2 μm/mL: perform better than TPGS-1000
[4]
  surfactant content left: 88-90%
[4]; pull points every 1.5 months
  susceptibility to chemical degradation (surfactant content over time): minimal susceptibility to chemical degradation

## Vitamin E dimethyl glutarate [VEDG3.3]
[7]; listed as VEDG 3.3
  mean fluorescence intensity (MFI) fold change, dendritic cell (DC) activation: perform better than TPGS1000; also recorded: no DC activation
[10]
  inhibition of platelet aggregation: comparable platelet inhibition values as PS80

From patent US20250332263A1, “SURFACTANT STABILIZERS” (NOVARTIS AG, priority 2021, published 2025)
